target: Growth hormone secretagogue receptor type 1 (Rattus norvegicus) (UniProt O08725); experiment: Ability to release growth hormone in a rat pituitary cell assay
Sequence (O08725 whole entry, looked up): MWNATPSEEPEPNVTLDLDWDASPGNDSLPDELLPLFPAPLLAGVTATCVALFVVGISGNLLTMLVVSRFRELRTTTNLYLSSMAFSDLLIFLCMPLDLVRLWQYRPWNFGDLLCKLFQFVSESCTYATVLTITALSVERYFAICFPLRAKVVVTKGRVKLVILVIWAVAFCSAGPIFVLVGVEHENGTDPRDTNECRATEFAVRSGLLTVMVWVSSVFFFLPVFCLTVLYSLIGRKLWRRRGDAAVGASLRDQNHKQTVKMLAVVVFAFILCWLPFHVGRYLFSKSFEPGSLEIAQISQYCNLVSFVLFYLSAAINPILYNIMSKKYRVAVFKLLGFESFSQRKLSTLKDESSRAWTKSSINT

SMILES	EC50 [nM]
CC(C)(N)C(=O)N[C@H](CCCc1ccccc1)C(=O)N1CCC2(CC1)C[C@H](CC(=O)O)c1ccccc12	2.3
CCOC(=O)[C@@H]1CC2(CCN(C(=O)[C@@H](COCc3ccccc3)NC(=O)C(C)(C)N)CC2)c2ccccc21	6.6
CCOC(=O)CCC1CC2(CCN(C(=O)[C@@H](CCCc3ccccc3)NC(=O)C(C)(C)N)CC2)c2ccccc21 (stereo partly drawn)	1.3
CC(C)(N)C(=O)N[C@H](CCCc1ccccc1)C(=O)N1CCC2(CC1)C[C@H](C(=O)O)c1ccccc12	2.1
CC(C)(N)C(=O)N[C@@H](CCCc1ccccc1)C(=O)N1CCC2(CCc3ccccc32)CC1	10
CC(C)(N)C(=O)N[C@H](CCCc1ccccc1)C(=O)N1CCC2(CC1)C[C@@H](C(=O)O)c1ccccc12	2.5
CCOC(=O)[C@@H]1CC2(CCN(C(=O)[C@@H](CCCc3ccccc3)NC(=O)C(C)(C)N)CC2)c2ccccc21	2
CC(C)(N)C(=O)N[C@H](CCCc1ccccc1)C(=O)N1CCC2(CC1)CC(CCC(=O)O)c1ccccc12 (stereo partly drawn)	2.5
CCOC(=O)C[C@@H]1CC2(CCN(C(=O)[C@@H](CCCc3ccccc3)NC(=O)C(C)(C)N)CC2)c2ccccc21	0.8
CCOC(=O)[C@H]1CC2(CCN(C(=O)[C@@H](COCc3ccccc3)NC(=O)C(C)(C)N)CC2)c2ccccc21	2.9
CCOC(=O)[C@H]1CC2(CCN(C(=O)[C@@H](CCCc3ccccc3)NC(=O)C(C)(C)N)CC2)c2ccccc21	1
CC(C)(N)C(=O)N[C@H](CCCc1ccccc1)C(=O)N1CCC2(CC1)C[C@@H](CC(=O)O)c1ccccc12	1.9
CC(C)(N)C(=O)N[C@H](COCc1ccccc1)C(=O)N1CCC2(CCc3ccccc32)CC1	17
CC(C)(N)C(=O)N[C@H](Cc1c[nH]c2ccccc12)C(=O)N1CCC2(CC1)C[C@@H](CC(=O)O)c1ccccc12	5.8
CCOC(=O)C[C@H]1CC2(CCN(C(=O)[C@@H](Cc3c[nH]c4ccccc34)NC(=O)C(C)(C)N)CC2)c2ccccc21	28
CCOC(=O)C[C@@H]1CC2(CCN(C(=O)[C@@H](Cc3c[nH]c4ccccc34)NC(=O)C(C)(C)N)CC2)c2ccccc21	7
CCOC(=O)[C@H]1CC2(CCN(C(=O)[C@@H](Cc3c[nH]c4ccccc34)NC(=O)C(C)(C)N)CC2)c2ccccc21	6
CC(C)(N)C(=O)N[C@H](COCc1ccccc1)C(=O)N1CCC2(CC1)C[C@H](C(=O)O)c1ccccc12	4.4
CCOC(=O)[C@@H]1CC2(CCN(C(=O)[C@@H](Cc3c[nH]c4ccccc34)NC(=O)C(C)(C)N)CC2)c2ccccc21	8.3
CCOC(=O)C[C@H]1CC2(CCN(C(=O)[C@@H](CCCc3ccccc3)NC(=O)C(C)(C)N)CC2)c2ccccc21	1
CC(C)(N)CC(=O)N[C@@H]1CCc2ccccc2N(Cc2ccc(-c3ccccc3-c3nnn[nH]3)cc2)C1=O [3-Amino-3-methyl-N-{2-oxo-1-[2'-(1H-tetrazol-5-yl)-biphenyl-4-ylmethyl]-2,3,4,5-tetrahydro-1H-benzo[b]azepin-3-yl}-butyramide]	60
CC(C)(N)C(=O)N[C@H](Cc1c[nH]c2ccccc12)C(=O)N1CCC2(CCc3ccccc32)CC1 [L-162752]	14
C[C@@H](O)CNC(C)(C)CC(=O)N[C@@H]1CCc2ccccc2N(Cc2ccc(-c3ccccc3-c3nnn[nH]3)cc2)C1=O [L-692585]	3

— BindingDB's records for doi:10.1016/S0960-894X(97)00421-6 (1997)
